Source: patent US7678787B2, “Pyrrolobenzodiazepine pyridine carboxamides and derivatives as follicle-stimulating hormone receptor antagonists” (Wyeth, priority 2005, dated 2010)

How the values were obtained:
[1] = molecular target: T1, hFSH-R (Homo sapiens, UniProt P23945); test: cAMP accumulation (RIA) in CHO-3D2 cells (hFSH-R), hFSH-induced; assay type: cell-based; details: inhibition of cAMP accumulation induced by hFSH at EC20, CHO-3D2 cells
T1 construct: expressed in transfected cells; host or cells: CHO-3D2 cells (CHO-K1 parental line)
T1 sequence (P23945 18-695): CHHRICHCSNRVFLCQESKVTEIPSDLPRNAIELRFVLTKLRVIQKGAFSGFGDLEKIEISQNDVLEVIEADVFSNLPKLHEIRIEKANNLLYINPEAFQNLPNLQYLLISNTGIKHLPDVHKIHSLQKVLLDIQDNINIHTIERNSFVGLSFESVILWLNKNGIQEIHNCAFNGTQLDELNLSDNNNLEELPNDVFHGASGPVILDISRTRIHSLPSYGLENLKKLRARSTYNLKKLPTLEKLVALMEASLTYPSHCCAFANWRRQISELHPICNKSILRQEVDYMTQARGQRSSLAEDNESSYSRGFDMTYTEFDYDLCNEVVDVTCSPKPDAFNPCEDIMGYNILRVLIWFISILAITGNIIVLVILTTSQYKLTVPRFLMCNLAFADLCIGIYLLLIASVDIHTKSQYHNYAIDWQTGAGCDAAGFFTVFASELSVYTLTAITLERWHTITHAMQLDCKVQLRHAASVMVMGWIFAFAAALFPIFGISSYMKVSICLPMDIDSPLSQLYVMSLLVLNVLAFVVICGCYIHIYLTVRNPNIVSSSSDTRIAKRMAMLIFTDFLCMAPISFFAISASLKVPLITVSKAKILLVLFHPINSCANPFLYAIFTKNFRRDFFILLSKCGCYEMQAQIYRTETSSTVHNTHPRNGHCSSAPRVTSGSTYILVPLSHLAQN
Experimental: IN VITRO BIO-ASSAY OF AGONISTS AND ANTAGONISTS TO THE FSH RECEPTOR. SELECTIVITY AND DEPENDENCY OF AGONISTS AND ANTAGONISTS TO THE FSH RECEPTOR
Compound Vehicle: Stock compounds were solubilized in 100% DMSO (Sigma-Aldrich Chemical Co., St. Louis, Mo.) at a concentration of 30 mM. The compounds subsequently were diluted in sterile assay medium consisting of Opti-MEM® I (Invitrogen/Life Technologies, Carlsbad, Calif.) with 0.1% (w/v) BSA (Sigma-Aldrich) prior to use in the bio-assay. The final concentration of DMSO in the assay was 0.1%.
Plated cells are then incubated at 37° C. in a humidified 5% CO2/95% air atmosphere.
Assay: On the day of the assay, cells were washed three times with 100 μl/well of assay medium consisting of Opti-MEM® I (Invitrogen/Life Technologies) with 0.1% (w/v) BSA (Sigma-Aldrich). Medium was removed and 100 μl of assay medium was added to each well. Plates were incubated for an additional 30 minutes at 37° C. […] Reactions were terminated by the addition of 50 μl of 0.2N hydrochloric acid to each well and cAMP-accumulation was measured by radioimmunoassay (RIA) using a commercially available kit (Amersham Biosciences, Piscataway, N.J.).
All test compounds were evaluated in a dose-response paradigm ranging from 0.01 to 30 μM. Controls and test compounds were evaluated in quadruplicate in a 96-well format.
Along with the test compounds, FSH was run also as a postive control in the agonist mode using concentrations ranging from 0.1-1000 ng/ml.
Data were analyzed by one-way analysis of variance and significant differences between treatments and control determined by Least Significant Difference test.
Test compounds were compared to the effect of purified human FSH.

[2] = molecular target: T2, human FSH receptor (Homo sapiens, UniProt P23945); test: FSH receptor-dependent CRE-luciferase reporter gene assay (CHO FSH-R 6CRE-Luc cells); assay type: cell-based; details: dose-response format in presence of EC50 of purified human FSH; * n=3, ** n=2 averages
T2 construct: host or cells: CHO-K1 (CHO FSH-R 6CRE-Luc, 1D7 cells)
T2 sequence (P23945 18-695): T1 sequence (P23945 18-695)
Excerpt: FOLLICLE-STIMULATING HORMONE RECEPTOR-DEPENDENT CRE-LUCIFERASE REPORTER GENE ASSAY FOR THE IDENTIFICATION OF FOLLICLE-STIMULATING HORMONE (FSH) ANTAGONISTS
A Chinese hamster ovarian cell line that stably produces the human FSH receptor and a luciferase reporter gene regulated by cAMP response elements was used to identify and determine the relative potencies of human FSH receptor antagonists. See for example, Kelton, C. A., et al. Mol. Cell. Endocrinol. 89:141-151 (1992), Tilly, J. L., et al. Endocrinology 131:799-806(1992), and George, S. E., et al. J. Biomol. Screening 2:235-240 (1997).
Compound Vehicle: Stock compounds were solubilized in an appropriate vehicle, e.g., phosphate buffered saline (PBS) or dimethyl sulfoxide (DMSO), at 30 mM. The compounds subsequently were diluted in DMSO to working dilutions of 1 and 20 or 30 mM for 2-dose testing format and 1 μM-10 mM for dose-response format. The DMSO dilutions were diluted 500-fold in sterile growth medium [D-MEM/F-12 (GIBCO/BRL; Grand Island, N.Y.) containing 15 mM HEPES, 2 mM l-glutamine, pyridoxine hydrochloride, phenol red and 5% FETALCLONE® II (HyClone Laboratories, Inc; Logan, Utah), 0.2% DMSO, 100 units penicillin G/ml, and 100 μg streptomycin sulfate/ml (GIBCO/BRL)]. The concentration of the vehicle in each of the compound dilutions was the same.
Positive Controls: Purified human FSH (>98%) was purchased from Cortex Biochem, Inc. (San Leandro, Calif.) and 3-[(2S*,5R*)-5-{[2-(1H-Indol-3-yl)-ethylcarbamoyl]-methyl}-4-oxo-2-(5-phenylethynyl-thiophen-2-yl)-thiazolidin-3-yl]-benzamide (an FSH-R thiazolidinone antagonist) was prepared by processes described by R. A. Scheuerman et al. in U.S. Pat. No. 6,426,357 (Affymax).
The CHO FSH-R 6CRE-Luc cells (1D7 cells) were obtained from Affymax (Palo Alto, Calif.). These Chinese hamster ovary cells (CHO-K1) were engineered genetically to stably express the recombinant human FSH receptor gene and a luciferase reporter gene under the regulation of 6 copies of a cAMP response element. The cells were plated one day prior to treatment into 96-well white opaque plates at a density of 50,000 cells/100 μl/well in growth medium. On the day of treatment, the growth medium was removed from the wells by aspiration and 50 μl of fresh growth medium was added to each well. The cells were incubated at 37° C. in a humidified incubator with 5% CO2/95% air.
The treated cells were incubated for 4 hours at 37° C. in a humidified incubator with 5% CO2/95% air. At the end of the incubation period, luciferase activity was measured by chemiluminescence using a commercially available kit (LucScreen, Tropix, Inc., Bedford, Mass.) according to the manufacturer's specifications, except that Buffer 1 and Buffer 2 were mixed together in equal proportion prior to the addition of 100 μl of the combined reagents to each well. Chemiluminescence was detected using a luminometer (EG & G Berthold Microlumat LB 96 P, Wallac, Gaithersburg, Md.) with chemiluminescence measured for 1 sec/well. Background luminescence was measured for each well prior to the addition of the LucScreen reagent.
In the 96-well 2-dose format, each compound was tested in duplicate at each dose. […] One plate was used to test a maximum of 22 compounds.
The EC50 of purified human FSH alone was tested in triplicate with each test compound. The doses chosen to test each compound were extrapolated from the initial 2-dose screening process. Along with the test compounds, purified human FSH also was tested in a dose response (0.03, 0.1, 0.3, 1, 3, 10, and 30 ng/ml) for a positive control and quality control. One plate was used for 3 test compounds and the FSH positive control.
Luciferase activity is expressed as relative light units/sec/well. Luciferase activity in antagonist was compared to the appropriate negative and positive controls. For 2-dose testing, results are reported as luciferase activity and are expressed as percent inhibition of the response obtained from the EC50 of FSH.

Row | SMILES | IC50 [1] [nM] | IC50 [2] [nM]
1 | Cc1cc(C(=O)N2Cc3ccc(C(=O)NCc4cccnc4)n3Cc3ccccc32)ccc1-c1ccccc1C(F)(F)F [Example 5] | 1500 | 13800
2 | COc1ccccc1-c1ccc(C(=O)N2Cc3ccc(C(=O)NCc4cccnc4Oc4ccccc4)n3Cc3ccccc32)cc1 [Example 7, 10-[(2′-METHOXY-1,1′-BIPHENYL-4-YL)CARBONYL]-N-[(2-PHENOXYPYRIDIN-3-YL)METHYL]-10,11-DIHYDRO-5H-PYRROLO[2,1-C][1,4]BENZODIAZEPINE-3-CARBOXAMIDE] | 700 | 5400
3 | O=C(NCc1cccnc1)c1ccc2n1Cc1ccccc1N(C(=O)c1ccc(-c3ccccc3)cc1)C2 [Example 13] | 700 | 2800
4 | CSc1ccccc1-c1ccc(C(=O)N2Cc3ccc(C(=O)NCc4cccnc4)n3Cc3ccccc32)cc1 [Example 14, 10-{[2′-(METHYLTHIO)-1,1′-BIPHENYL-4-YL]CARBONYL}-N-(PYRIDIN-3-YLMETHYL)-10,11-DIHYDRO-5H-PYRROLO[2,1-C][1,4]BENZODIAZEPINE-3-CARBOXAMIDE 0.67 HYDRATE] | 770 | 1610
5 | Cc1cc(C(=O)N2Cc3ccc(C(=O)NCc4cccnc4)n3Cc3ccccc32)ccc1-c1ccccc1F [Example 20] | 1300 | 3700
6 | Cc1cc(C(=O)N2Cc3ccc(C(=O)NCc4cccnc4)n3Cc3ccccc32)ccc1-c1ccccc1Cl [Example 21] | 1000 | 2900
7 | Cc1cc(C(=O)N2Cc3ccc(C(=O)NCc4cccnc4)n3Cc3ccccc32)ccc1-c1ccc(Cl)cc1 [Example 24] | 1600 | 10700
8 | N#Cc1ccccc1-c1ccc(C(=O)N2Cc3ccc(C(=O)NCc4cccnc4)n3Cc3ccccc32)cc1 [Example 30] | 270 | 1100
9 | CC(C)c1ccccc1-c1ccc(C(=O)N2Cc3ccc(C(=O)NCc4cccnc4)n3Cc3ccccc32)cc1 [Example 31] | 330 | 940
10 | COC(=O)Cc1ccccc1-c1ccc(C(=O)N2Cc3ccc(C(=O)NCc4cccnc4)n3Cc3ccccc32)cc1 [Example 32] | 20 | 156
11 | CCOc1ccccc1-c1ccc(C(=O)N2Cc3ccc(C(=O)NCc4cccnc4)n3Cc3ccccc32)cc1 [Example 33] | 900 | 1450
12 | O=C(NCc1cccnc1)c1ccc2n1Cc1ccccc1N(C(=O)c1ccc(-c3ccccc3O)cc1)C2 [Example 34] | 590 | 1550
13 | CC(C)C(=O)c1ccccc1-c1ccc(C(=O)N2Cc3ccc(C(=O)NCc4cccnc4)n3Cc3ccccc32)cc1 [Example 36] | 430 | 1860
14 | CC(C)C(O)c1ccccc1-c1ccc(C(=O)N2Cc3ccc(C(=O)NCc4cccnc4)n3Cc3ccccc32)cc1 (centres unmarked) [Example 37] | 490 | 1640

Now from value to compound:

Row | IC50 [1] [nM] | IC50 [2] [nM] | SMILES
15 | 150 | 317 | CC(O)c1ccccc1-c1ccc(C(=O)N2Cc3ccc(C(=O)NCc4cccnc4)n3Cc3ccccc32)cc1 (single isomer, unassigned; (+)) [Example 54]
16 | 120 | 159 | CC(O)c1ccccc1-c1ccc(C(=O)N2Cc3ccc(C(=O)NCc4cccnc4)n3Cc3ccccc32)cc1 (single isomer, unassigned; (-)) [Example 53]
17 | 90 | 78 | NC(=O)Cc1ccccc1-c1ccc(C(=O)N2Cc3ccc(C(=O)NCc4cccnc4)n3Cc3ccccc32)cc1 [Example 38]
18 | 250 | 414 | CNC(=O)Cc1ccccc1-c1ccc(C(=O)N2Cc3ccc(C(=O)NCc4cccnc4)n3Cc3ccccc32)cc1 [Example 39]
19 | 320 | 921 | CN(C)C(=O)Cc1ccccc1-c1ccc(C(=O)N2Cc3ccc(C(=O)NCc4cccnc4)n3Cc3ccccc32)cc1 [Example 40]
20 | 300 | 1000 | Cc1cc(C(=O)N2Cc3ccc(C(=O)NCc4cccnc4)n3Cc3ccccc32)ccc1-c1ccccc1C(C)O (centres unmarked) [Example 50]
21 | 810 | 3670 | CCNC(=O)Cc1ccccc1-c1ccc(C(=O)N2Cc3ccc(C(=O)NCc4cccnc4)n3Cc3ccccc32)cc1 [Example 66]
22 | 1100 | 4960 | CC(C)(C)c1ccc(C(=O)N2Cc3ccc(C(=O)NCc4cccnc4)n3Cc3ccccc32)cc1 [Example 80]
23 | 1200 | 5820 | CN(C)c1ccc(C(=O)N2Cc3ccc(C(=O)NCc4cccnc4)n3Cc3ccccc32)cc1 [Example 84]
24 | 1100 | 6440 | O=C(NCc1cccnc1)c1ccc2n1Cc1ccccc1N(C(=O)c1ccc(OC(F)(F)F)cc1)C2 [Example 85]
25 | 400 | 4960 | CCCc1ccc(C(=O)N2Cc3ccc(C(=O)NCc4cccnc4)n3Cc3ccccc32)cc1 [Example 98]
